Data reported in PubChem BioAssay (NCI).
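Step 1: Grow cells in 96-well plates. Step 2: Expose to compound for 48 hours at 5 concentrations. Step 3: Interpolate endpoints linearly; if unreached, use highest concentration. The concentration for 50% growth inhibition is given as GI50. The concentration for full growth arrest is given as TGI.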

How the values were obtained:
Test in all cases: inhibition of tumour cell growth, NCI panel, 48 h
NCI-H23 lung = test system: NCI-H23 lung
MCF7 breast = test system: MCF7 breast
OVCAR-5 ovarian = test system: OVCAR-5 ovarian
KM12 colon = test system: KM12 colon
SF-268 CNS = test system: SF-268 CNS
HCT-116 colon = test system: HCT-116 colon
HOP-62 NSCLC = test system: HOP-62 NSCLC
UACC-62 melanoma = test system: UACC-62 melanoma
NCI-H226 lung = test system: NCI-H226 lung
A498 renal = test system: A498 renal
IGROV1 ovarian = test system: IGROV1 ovarian
NCI/ADR-RES ovarian = test system: NCI/ADR-RES ovarian
SK-OV-3 ovarian = test system: SK-OV-3 ovarian
NCI-H460 lung = test system: NCI-H460 lung
PC-3 prostate = test system: PC-3 prostate
DU-145 prostate = test system: DU-145 prostate
SK-MEL-28 melanoma = test system: SK-MEL-28 melanoma
A549 NSCLC = test system: A549 NSCLC
HS 578T breast = test system: HS 578T breast
MOLT-4 leukemia = test system: MOLT-4 leukemia
OVCAR-4 ovarian = test system: OVCAR-4 ovarian
HT29 colon = test system: HT29 colon
SNB-19 CNS = test system: SNB-19 CNS
RPMI-8226 leukemia = test system: RPMI-8226 leukemia
MALME-3M melanoma = test system: MALME-3M melanoma
SK-MEL-5 melanoma = test system: SK-MEL-5 melanoma
UACC-257 melanoma = test system: UACC-257 melanoma
U251 CNS = test system: U251 CNS
UO-31 renal = test system: UO-31 renal
HCT-15 colon = test system: HCT-15 colon
MDA-MB-231 breast = test system: MDA-MB-231 breast
SN12C renal = test system: SN12C renal
CCRF-CEM leukemia = test system: CCRF-CEM leukemia
RXF 393 renal = test system: RXF 393 renal
T-47D breast = test system: T-47D breast
SW-620 colon = test system: SW-620 colon
786-0 renal = test system: 786-0 renal
SF-295 CNS = test system: SF-295 CNS
MDA-MB-435 = test system: MDA-MB-435
OVCAR-8 ovarian = test system: OVCAR-8 ovarian
COLO 205 colon = test system: COLO 205 colon
BT-549 breast = test system: BT-549 breast
SR leukemia = test system: SR leukemia
CAKI-1 renal = test system: CAKI-1 renal
TK-10 renal = test system: TK-10 renal
NCI-H522 lung = test system: NCI-H522 lung
EKVX NSCLC = test system: EKVX NSCLC
SNB-75 CNS = test system: SNB-75 CNS
SF-539 CNS = test system: SF-539 CNS
HCC-2998 colon = test system: HCC-2998 colon
OVCAR-3 ovarian = test system: OVCAR-3 ovarian
M14 melanoma = test system: M14 melanoma
ACHN renal = test system: ACHN renal
LOX IMVI melanoma = test system: LOX IMVI melanoma

## N#Cc1c(N)nc(NCc2ccccc2)c(C#N)c1-c1ccc(Cl)cc1
NCI-H23 lung
  GI50: 22.8 µM
  TGI: 80 µM
MCF7 breast
  GI50: 13.8 µM
  TGI: 83.1 µM
OVCAR-5 ovarian
  GI50: 24.2 µM
  TGI: 76.1 µM
KM12 colon
  GI50: 25.2 µM
  TGI: > 100 µM
SF-268 CNS
  GI50: 14.3 µM
  TGI: 35.6 µM
HCT-116 colon
  GI50: 15.8 µM
  TGI: 41.3 µM
HOP-62 NSCLC
  GI50: 16.1 µM
  TGI: 31.2 µM
UACC-62 melanoma
  GI50: 14.7 µM
  TGI: 33.5 µM
NCI-H226 lung
  GI50: 10.6 µM
  TGI: 31.2 µM
A498 renal
  GI50: 10.4 µM
  TGI: 26.4 µM
IGROV1 ovarian
  GI50: 13.5 µM
  TGI: 32.4 µM
NCI/ADR-RES ovarian
  GI50: 19.8 µM
  TGI: 60 µM
SK-OV-3 ovarian
  GI50: 33.2 µM
  TGI: > 100 µM
NCI-H460 lung
  GI50: 10.2 µM
  TGI: 28.7 µM
PC-3 prostate
  GI50: 17.9 µM
  TGI: 48.7 µM
DU-145 prostate
  GI50: 17.7 µM
  TGI: 55.7 µM
SK-MEL-28 melanoma
  GI50: 25.9 µM
  TGI: > 100 µM
A549 NSCLC
  GI50: 28.3 µM
  TGI: > 100 µM
HS 578T breast
  GI50: 15.6 µM
  TGI: 40.4 µM
MOLT-4 leukemia
  GI50: 34.3 µM
  TGI: > 100 µM
OVCAR-4 ovarian
  GI50: 9.57 µM
  TGI: > 100 µM
HT29 colon
  GI50: 22.3 µM
  TGI: > 100 µM
SNB-19 CNS
  GI50: 31.6 µM
  TGI: > 100 µM
RPMI-8226 leukemia
  GI50: 18.9 µM
  TGI: 97.1 µM
MALME-3M melanoma
  GI50: 14.4 µM
  TGI: 54.5 µM
SK-MEL-5 melanoma
  GI50: 25.9 µM
  TGI: > 100 µM
UACC-257 melanoma
  GI50: 67.9 µM
  TGI: > 100 µM
U251 CNS
  GI50: 12.4 µM
  TGI: 26.9 µM
UO-31 renal
  GI50: 31.9 µM
  TGI: > 100 µM
HCT-15 colon
  GI50: 18.8 µM
  TGI: > 100 µM
MDA-MB-231 breast
  GI50: 14.2 µM
  TGI: 33.2 µM
SN12C renal
  GI50: 16.1 µM
  TGI: 38.3 µM
CCRF-CEM leukemia
  GI50: 28.2 µM
  TGI: > 100 µM
RXF 393 renal
  GI50: 26.5 µM
  TGI: 74.1 µM
T-47D breast
  GI50: 27.3 µM
  TGI: > 100 µM
SW-620 colon
  GI50: 16.2 µM
  TGI: 96.9 µM
786-0 renal
  GI50: 20 µM
  TGI: 38.6 µM
SF-295 CNS
  GI50: 14.2 µM
  TGI: 34.4 µM
MDA-MB-435
  GI50: 15.7 µM
  TGI: 43.6 µM
OVCAR-8 ovarian
  GI50: 19 µM
  TGI: 57.2 µM
COLO 205 colon
  GI50: 46.9 µM
  TGI: > 100 µM
BT-549 breast
  GI50: 19.6 µM
  TGI: 60.4 µM
SR leukemia
  GI50: 13.3 µM
  TGI: 52.8 µM
CAKI-1 renal
  GI50: 20.1 µM
  TGI: 46.7 µM
TK-10 renal
  GI50: 14.4 µM
  TGI: 32.8 µM
NCI-H522 lung
  GI50: 20.9 µM
  TGI: 57.5 µM
EKVX NSCLC
  GI50: 27.3 µM
  TGI: 79 µM
SNB-75 CNS
  GI50: 22.1 µM
  TGI: 72.3 µM
SF-539 CNS
  GI50: 25.9 µM
  TGI: 68.1 µM
HCC-2998 colon
  GI50: 71.1 µM
  TGI: > 100 µM
OVCAR-3 ovarian
  GI50: 14.7 µM
  TGI: 37.1 µM
M14 melanoma
  GI50: 20 µM
  TGI: 99.7 µM
ACHN renal
  GI50: 13.4 µM
  TGI: 32.8 µM
LOX IMVI melanoma
  GI50: 12.4 µM
  TGI: 29.3 µM
